Data on four molecules can be found in publication PMC5045922, “In vivo pharmacological activity and biodistribution of S-nitrosophytochelatins after intravenous and intranasal administration in mice” (Nitric Oxide, 2016).

Data set [1] relates to CD-1 mice. Type of data set: in vivo. Particulars: for Tmax (time at which the maximum response occurred): in vivo, iv. On the procedure:
In vivo blood pressure was monitored in anaesthetized animals as previously described. A total of 12 wild type male mice were used (n = 3/group) where the groups represented the vehicle (0.9% saline) control, GSNO, SNOPC-2 and SNOPC-6 treatments, respectively. Mean arterial pressure was recorded in anaesthetized mice (2% isoflurane in air) on a homeothermically controlled heating blanket (Harvard Instruments, Edenbridge, UK). A 1.2F microtip pressure catheter (Scisense, Transonic Systems, Ithaca, NY, USA) was inserted into the right carotid artery and basal arterial pressure was recorded for 5 min. Test drug solutions (50 μL containing 500 μmol/L NO ≈ 1 μmol NO/kg body weight) or control (saline) solution were directly injected into the jugular vein using a 30 gauge needle inserted through the underlying muscle. Arterial blood pressure was recorded continuously for a further 5 min following drug administration using a PowerLab data acquisition system and Chart 7 software (ADInstuments, Oxford, UK).

Details of data set [2]: species or system mice. Conditions: CD-1, mouse, in vivo. On the procedure: A total of 48 mice were used (n = 3/group/time point) where the groups represented vehicle (0.9%saline) control, GSNO, SNOPC-2 and SNOPC-6 treatments (n = 3 per group), respectively. A time course study (0, 1, 5 and 15 min) was carried out to characterize the NOx biodistribution after i.n. administration of compounds. Prior to drug administration, mice were anaesthetized by inhaling 2% isoflurane in air via a nose cone. A single volume (20 μL) of test solution in saline (containing 1.25 mmol/L NO ≈ 1 μmol NO/kg body weight) or control (saline) solution was then administered drop wise into the nasal cavity using a micropipette after removing the mouse momentarily from the anaesthetic mask cone and holding it in an upright position. At the appropriate time point animals were exsanguinated by terminal bleed under anaesthesia. Blood and organ samples were collected and processed as described in section 2.4.
Prior to quantification, tissue samples were thawed, weighed and homogenized at 100 mg tissue/mL in phosphate buffered saline (PBS; pH 7.4) using a Silverson model L4RT laboratory homogenizer. Homogenates were centrifuged at 13,000 g for 20 min at 4 °C to remove tissue debris. Whole blood samples were fractionated into plasma (serum + platelets) and blood cells (red and white blood cells) by centrifugation at 1200 g. Cellular blood components were lysed with lysis buffer (5 mmol/L Na o-vanadate, 10 mg/mL benzamidine, 1 mmol/L phenylmethylsulfonyl fluoride (PMSF), 10 mmol/L Tris HCl, 5 mmol/L ethylenediamine tetraacetic acid (EDTA), 50 mmol/L NaCl pH 7.4 and 3.5 mmol/L SDS) at a volume ratio of 1:5 cells: lysis buffer. These samples were centrifuged at 13,000 g for 20 min at 4 °C. Protein content of each sample was quantified using the Bradford assay.
Quantification of total NOx was performed according to a method described by Verdon et al.. Briefly, samples were de-proteinated by mixing the sample with 0.3 mol/L NaOH and aqueous 0.27 mol/L ZnSO4 at a volume ratio of 1:1:2. NOx was determined in 50 μL de-proteinated sample in the form of nitrite using the colorimetric Griess method, [28]. The amount of nitrite in each sample was calculated from a linear calibration curve of known nitrite concentrations (linear range: 1–100 μmol/L) and normalized for total amount of protein (mg), quantified using the Bradford assay. The final concentration, expressed as μM nitrite/mg protein, represents the total NOx in the system. Any remaining nitrite in the infusate (drug solution administered) was not measured as we were more interested in in vivo changes in NOx levels in untreated versus different treated groups at different time points measured but we have previously characterized this.

The conditions of data set [3]: cited from earlier work.
For data set [4] the following is noted: CD-1, mouse, in vivo, iv.
Details of data set [5]: method as in PMID 26686469. Particulars: after equilibration of the NO moiety amongst plasma thiols via S-transnitrosylation; cited from earlier work.
The mark [6] stands for this setting: inhaled or intranasal, 1 umol/kg.
The mark [7] stands for this setting: 10 μmol/L, human plasma and whole blood ex vivo.

Read-outs that look alike come from different tables or passages of the source. Where only a bound is given, the exact number is not on record here.

Take `N[C@@H](CCC(=O)N[C@@H](CSN=O)C(=O)NCC(=O)O)C(=O)O` [GSNO, S-nitrosoglutathione]: the “reduction in blood pressure” value in data set [1] (i.v., 1 μmol NO/kg body weight, CD-1 mice, compared to saline) is on record as 30–35%. Moreover, in data set [1] (mouse), the “Tmax (time at which the maximum response occurred)” value stood at 0.083 min. Besides, in data set [2] (setting [6]), the “NOx tmax Heart” value is listed as 5 min, the “NOx tmax Liver” value came out at 5 min, the “NOx tmax Lung” value worked out at 1 min and the “NOx tmax Plasma” value came to 5 min. Also, in data set [3] (setting [7]), the Half-life of decomposition is around 2 min, the “decomposition within the first 5 min” value is around 85% and the “time to full decomposition” value is on record as at most 15 min. For the same molecule, in data set [4] (1 umol/kg), the “NOx tmax Heart” value stood at 3 min, the “NOx tmax Liver” value came to 5 min, the “NOx tmax Lung” value was found to be 1 min and the “NOx tmax Plasma” value amounted to 1 min. Besides, the half-life result in data set [5] was “about 5 min”.

In the case of `N[C@@H](CCC(=O)N[C@@H](CSN=O)C(=O)N[C@@H](CCC(=O)N[C@@H](CSN=O)C(=O)NCC(=O)O)C(=O)O)C(=O)O` [SNOPC-2], the “Tmax (time at which the maximum response occurred)” value in data set [1] (male, CD-1, mouse) came to 0.083 min. Moreover, in data set [2], the “NOx tmax Heart” value was 5 min, the “NOx tmax Liver” value was determined as 5 min, the “NOx tmax Lung” value was 1 min and the “NOx tmax Plasma” value was 5 min. In addition, in data set [4], the “NOx tmax Heart” value was determined as 1 min, the “NOx tmax Liver” value is 3 min, the “NOx tmax Lung” value was found to be 1 min and the “NOx tmax Plasma” value is 1 min.

On to `N[C@@H](CCC(=O)N[C@@H](CSN=O)C(=O)N[C@@H](CCC(=O)N[C@@H](CSN=O)C(=O)N[C@@H](CCC(=O)N[C@@H](CSN=O)C(=O)N[C@@H](CCC(=O)N[C@@H](CSN=O)C(=O)N[C@@H](CCC(=O)N[C@@H](CSN=O)C(=O)N[C@@H](CCC(=O)N[C@@H](CSN=O)C(=O)NCC(=O)O)C(=O)O)C(=O)O)C(=O)O)C(=O)O)C(=O)O)C(=O)O` [SNOPC-6], for which the “Tmax (time at which the maximum response occurred)” value in data set [1] (male, CD-1, mouse) turned out to be 0.083 min. Further, in data set [2], the “NOx tmax Heart” value came to 5 min, the “NOx tmax Liver” value came to 5 min, the “NOx tmax Lung” value is listed as 1 min and the “NOx tmax Plasma” value is reported as 5 min. For the same molecule, in data set [4], the “NOx tmax Heart” value is recorded as 1 min, the “NOx tmax Liver” value is on record as 5 min, the “NOx tmax Lung” value is recorded as 1 min and the “NOx tmax Plasma” value was determined as 3 min.

Take S-nitrosated cysteine [CySNO]: in data set [3] (setting [7]), the “decomposition within the first 5 min” value was around 85% and the “time to full decomposition” value is at most 15 min. In addition, the Half-life of decomposition entry in data set [3] (human) is reported as “approximately 50 s”. The half-life result in data set [5] was “about 5 min”.
